The source of these data is US12571052B2, “Immunomodulatory RNA” (THE TRUSTEES OF THE UNIVERSITY OF PENNSYLVANIA, priority 2017, dated 2026).

In one series the test system is 1833 breast cancer cells. The experiment in a line: ISG expression in breast cancer cells after RNA transfection (qRT-PCR). The format is cell-based, Human. As to the method: Gene Targeting and Expression. Gene knockdown by siRNA was completed using SMARTPool siRNAs (Thermo) and transfected using 20 nM siRNA and RNAiMax (Invitrogen) transfection reagent. For stable knockdowns, shRNAs were cloned into the pGIPZ vector and transduced by virus using pCMV-VSV-G and pHR8.2AR envelope and packaging vectors in HEK293T cells. Transduced cells were selected using 1-2 ug/ml of puromycin. Wild-type and K858A/K861A binding mutant of RIG-I was cloned into the pOZ-N vector. Transduced cells were then selected with IL-2 receptor magnetic beads and expression was confirmed by Western blot for FLAG, HA, and RIG-I. RIG-I restoration was functionally confirmed by RIG-I pathway activation in response to Sendai virus infection. SRP9 and SRP14 were transiently transfected with pGFH-9 (Addgene plasmid #39538) and pGFH-14c (Addgene plasmid #39541), both gifts from Katharina Strub. Gene knockout by CRISPR was accomplished using pSpCas9 (BB)-2A-GFP (PX458) (Addgene plasmid #48138). RIG-I was knocked out utilizing the protocol described (Ran et al. (2013) Nat. Protoc. 8, 2281-2308). In brief, two distinct guide RNAs cloned into the pSpCas9 (BB)-2A-GFP backbone were transiently transfected into breast cancer cells. After 48 hours, single cells were sorted into 96 well single cell clones based on highest GFP expression. Clones were confirmed to have no RIG-I expression by immunoblot and pooled. RIG-I KO in the pooled clones were functionally confirmed by RIG-I pathway activation in response to Sendai virus infection.
In Vitro Transcription. In vitro transcription was performed using of PCR amplified cDNA templates that contained Hepatitis Delta Virus Ribozyme to ensure homogenous 3′ ends of the transcripts of interest (Avis et al. (2012) Methods Mol. Biol. 941, 83-97). In vitro transcription was completed with the MEGAshortscript T7 Transcription Kit (ThermoFisher) according to manufacturer's instructions. RNA was DNase treated and phenol/chloroform purified. After thermocycling to ensure ribozyme cleavage, correct size transcripts were gel purified. […]
(In general: Quantitative PCR measures a nucleic acid by following its amplification.)

The test system of a further series is B16-F10 tumor cells. The experiment in a line: B16-F10/MEF co-implantation, tumor growth and survival under checkpoint blockade. To be noted: MYC activated MEFs vs MEFs co-expressing SRP9/14; anti-CTLA-4 or anti-PD-1. Type of series: in vivo, C57BL/6 mice. As to the method:
Wild type (WT) C57BL/6 mice were injected with 5×10^4 B16-F10 tumor cells subcutaneously in the flank with 5×10^4 MYC activated mouse embryonic fibroblasts (MEFs) or MYC activated MEFs co-expressing SRP9/14. MYC activation is inducible with 4-OHT and results in the secretion of exosomes containing unshielded 7SL1 RNA, while co-expression of SRP9/14 ensures the 7SL1 RNA remains relatively shielded, allowing measurement of the stimulatory capacity specifically of the unshielded form (Nabet B Y, et al. Cell. 2017; 170 (2): 352-366.e13). Mice were subsequently treated with the anti-CTLA-4 or anti-PD-1 antibody (or not), and then tumor growth was monitored by caliper. Endpoint criterion was considered a tumor measurement of 1.5 cm in any direction.
Tumors were implanted as described in FIGS. 25A-25B and treated with CSF1R inhibitor BLZ945 (Novartis) every 2 days for 2 weeks starting at day 0 to prevent M2 polarization of infiltrating myeloid cells. Mice were additionally treated with anti-CTLA4 (FIG. 27A) or anti-CTLA4 and anti-PD1 (FIGS. 27B and 27C) on days 5, 8, and 11. Tumor growth was monitored by caliper.

Regarding “RN7SL1: Human RN7SL1 (7SL, srpRNA) RNA, 5'ppp, in vitro transcribed or secreted unshielded in exosomes; SEQ ID NO: 2”, the “ISG induction after transfection” value is listed as “induces ISGs in breast cancer cells specifically in a RIG-I-dependent manner” in the series with 1833 breast cancer cells (1833 cells, RIG-I wild type); “restored antiviral signaling” with 1833 breast cancer cells (RIG-I KO cells with re-expression of WT RIG-I); “abolished ISG induction” in the series on 1833 breast cancer cells (alkaline phosphatase treatment prior to transfection). Besides, in the series with B16-F10 tumor cells, the “response to checkpoint blockade therapy” value is “does not significantly impact response to anti-CTLA-4 or anti-PD-1 therapy”.
